Laboratory results published in the supplement of paper PMC10307832.

How the values were obtained:
Assay in all cases: relative viability (nuclei count vs DMSO), 5 days (fraction); higher = more cells survive
[1] = compound: OCc1c[nH]c2ccccc12 [Indole-3-carbinol] + O=C(c1cc(Cc2n[nH]c(=O)c3ccccc23)ccc1F)N1CCN(C(=O)C2CC2)CC1 [Olaparib] (partner 8 µM)
Method in brief: (§1)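 After 5 days of treatment, lung cancer cells in 1536-well plates were fixed and stained in a single step (final 0.05% Triton X-100, 1% formaldehyde, 1 ug/ml Hoechst) and their nuclei counted on 4× images. Treatment had been applied by pin tool the day after seeding as one drug alone or as a fixed anchor-drug dose with five library-drug doses (not always all listed) in √10 steps. Relative viability is the nuclei count of treated wells divided by that of vehicle wells, and values are medians of duplicate plates.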

[2] = compound: OCc1c[nH]c2ccccc12 [Indole-3-carbinol] + Nc1nc2[nH]cc(CCc3ccc(C(=O)N[C@@H](CCC(=O)O)C(=O)O)cc3)c2c(=O)[nH]1 [Pemetrexed] (partner 0.2 µM)
Method in brief: as §1

[3] = compound: OCc1c[nH]c2ccccc12 [Indole-3-carbinol] + CC(=O)c1c(C)c2cnc(Nc3ccc(N4CCNCC4)cn3)nc2n(C2CCCC2)c1=O [Palbociclib] (partner 0.5 µM)
Method in brief: as §1

[4] = compound: OCc1c[nH]c2ccccc12 [Indole-3-carbinol] + N=C(N)NC(=N)NCCc1ccccc1 [Phenformin] (partner 250 µM)
Method in brief: as §1

[5] = compound: OCc1c[nH]c2ccccc12 [Indole-3-carbinol] + CS(=O)(=O)CCNCc1ccc(-c2ccc3ncnc(Nc4ccc(OCc5cccc(F)c5)c(Cl)c4)c3c2)o1 [Lapatinib] (partner 2 µM)
Method in brief: as §1

Cell Line | relative viability ([1]; first compound 0.253 µM) | relative viability ([1]; first compound 0.8 µM) | relative viability ([1]; first compound 2.53 µM) | relative viability ([1]; first compound 8 µM) | relative viability ([2]; first compound 0.253 µM) | relative viability ([2]; first compound 0.8 µM) | relative viability ([2]; first compound 2.53 µM) | relative viability ([2]; first compound 8 µM) | relative viability ([3]; first compound 0.253 µM) | relative viability ([3]; first compound 0.8 µM) | relative viability ([3]; first compound 2.53 µM) | relative viability ([3]; first compound 8 µM) | relative viability ([4]; first compound 0.253 µM) | relative viability ([4]; first compound 0.8 µM) | relative viability ([4]; first compound 2.53 µM) | relative viability ([4]; first compound 8 µM) | relative viability ([5]; first compound 0.253 µM) | relative viability ([5]; first compound 0.8 µM) | relative viability ([5]; first compound 2.53 µM) | relative viability ([5]; first compound 8 µM)
201T | 0.849 | 0.856 | 0.843 | 0.848 | 0.345 | 0.354 | 0.362 | 0.322 | 0.357 | 0.396 | 0.356 | 0.34 | 0.42 | 0.478 | 0.505 | 0.446 | 1.1 | 0.969 | 1.01 | 0.999
A549 | 0.458 | 0.413 | 0.356 | 0.322 |  |  |  |  |  |  |  |  | 0.18 | 0.226 | 0.254 | 0.156 | 0.952 | 1.11 | 0.995 | 0.938
A-427 | 0.661 | 0.714 | 0.788 | 0.728 | 0.997 | 1.03 | 0.926 | 0.946 | 0.52 | 0.568 | 0.547 | 0.491 | 0.35 | 0.351 | 0.339 | 0.298 | 1.03 | 1 | 0.989 | 0.976
ABC-1 | 0.855 | 0.97 | 0.87 | 0.761 |  |  |  |  | 0.681 | 0.807 | 0.794 | 0.735 | 0.254 | 0.238 | 0.265 | 0.259 | 1.27 | 1.2 | 1.37 | 0.845
BEN | 1.09 | 1.05 | 1.12 | 1.06 | 0.75 | 0.704 | 0.757 | 0.905 | 0.495 | 0.445 | 0.512 | 0.485 | 0.269 | 0.262 | 0.265 | 0.253 | 0.782 | 0.72 | 0.718 | 0.696
CAL-12T | 0.672 | 0.834 | 0.717 | 0.66 | 1.28 | 1.44 | 1.12 | 1.24 | 0.443 | 0.517 | 0.573 | 0.398 | 0.584 | 0.553 | 0.58 | 0.559 | 0.728 | 0.592 | 0.665 | 0.527
COR-L23 | 0.37 | 0.411 | 0.372 | 0.31 | 0.193 | 0.202 | 0.198 | 0.209 | 0.323 | 0.245 | 0.308 | 0.237 | 0.413 | 0.456 | 0.41 | 0.403 | 0.921 | 0.918 | 0.998 | 0.887
COR-L 105 | 0.642 | 0.655 | 0.713 | 0.685 | 1.09 | 0.996 | 1.19 | 0.981 | 0.439 | 0.408 | 0.41 | 0.397 | 0.497 | 0.408 | 0.488 | 0.416 | 0.339 | 0.281 | 0.353 | 0.343
ChaGo-K-1 | 0.427 | 0.45 | 0.415 | 0.387 | 0.258 | 0.258 | 0.27 | 0.257 | 0.942 | 0.939 | 0.994 | 0.968 | 0.479 | 0.475 | 0.551 | 0.443 |  |  |  | 
EKVX | 0.797 | 0.938 | 0.851 | 0.85 | 0.4 | 0.46 | 0.413 | 0.452 | 0.384 | 0.36 | 0.386 | 0.452 | 0.232 | 0.223 | 0.227 | 0.234 | 0.203 | 0.18 | 0.207 | 0.198
EMC-BAC-2 | 0.493 | 0.51 | 0.504 | 0.467 | 0.393 | 0.441 | 0.439 | 0.448 | 0.507 | 0.519 | 0.507 | 0.489 | 0.528 | 0.536 | 0.489 | 0.413 | 0.879 | 0.76 | 0.852 | 0.813
EPLC-272H | 0.894 | 0.993 | 0.627 | 0.914 | 0.34 | 0.349 | 0.36 | 0.349 | 0.325 | 0.376 | 0.318 | 0.334 | 0.347 | 0.292 | 0.285 | 0.258 | 1.3 | 0.851 | 1.04 | 0.716
H3255 | 0.589 | 0.553 | 0.617 | 0.552 | 0.547 | 0.54 | 0.637 | 0.625 | 0.302 | 0.32 | 0.347 | 0.307 | 0.397 | 0.385 | 0.414 | 0.343 | 0.245 | 0.235 | 0.227 | 0.255
HARA | 0.568 | 0.77 | 0.331 | 0.701 | 0.267 | 0.239 | 0.243 | 0.242 | 0.303 | 0.249 | 0.281 | 0.232 | 0.484 | 0.479 | 0.554 | 0.435 | 0.932 | 0.737 | 0.711 | 0.654
HCC-15 | 0.722 | 0.747 | 0.684 | 0.685 | 0.214 | 0.226 | 0.205 | 0.235 | 0.804 | 0.773 | 0.733 | 0.724 | 0.54 | 0.556 | 0.472 | 0.468 | 0.965 | 0.951 | 0.893 | 0.829
HCC-44 | 1 | 1.02 | 0.966 | 0.962 | 0.679 | 0.659 | 0.694 | 0.541 | 0.954 | 1.03 | 0.902 | 0.882 | 0.168 | 0.198 | 0.187 | 0.295 | 1.02 | 1.04 | 0.973 | 0.988
HCC-78 | 0.958 | 0.758 | 0.798 | 0.819 | 0.89 | 0.947 | 0.929 | 0.891 | 0.486 | 0.498 | 0.471 | 0.462 | 0.654 | 0.626 | 0.667 | 0.845 | 0.97 | 0.645 | 0.768 | 0.664
